Data taken from patent US20230233569A1 (Revolution Medicines, Inc., priority 2020, published 2023).
Several values for one entry are separate records, joined by “and”; a condition that tells them apart may be missing. Equal values may be shown once. Read-outs that look alike come from different tables or passages of the source.

What was measured:
NRAS Q61R = NRAS Q61R (Homo sapiens, UniProt P01111+P62937, Q61R); experiment: Disruption of BRAF RBD interaction with Ras (FRET / MOA assay, with Cyclophilin A); format: biochemical; conditions: NRAS Q61R; read-out: NRAS Q61R FRET data IC50
Summary of the method: (§1)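 TR-FRET in 25 mM HEPES pH 7.3, 100 mM NaCl, 5 mM MgCl2, 0.1% BSA: 25 μM Cyclophilin A, 12.5 nM His6-Ras-GMPPNP, 50 nM GST-BRAF RBD with compound (10-point 3-fold series from 30 μM), 3 h at 25° C. Anti-His Eu/anti-GST APC added, 1.5 h more; IC50 from decreased FRET ratio versus DMSO.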

KRAS Q61H = KRAS Q61H (Homo sapiens, UniProt P01116+P62937, Q61H); experiment: as above; format: biochemical; conditions: KRAS Q61H; read-out: KRAS Q61H FRET data IC50
Summary of the method: as §1

NRAS WT = NRAS WT (Homo sapiens, UniProt P01111+P62937); experiment: as above; format: biochemical; conditions: NRAS WT; read-out: NRAS WT FRET data IC50
Summary of the method: as §1

NRAS Q61K = NRAS Q61K (Homo sapiens, UniProt P01111+P62937, Q61K); experiment: as above; format: biochemical; conditions: NRAS Q61K; read-out: NRAS Q61K FRET data IC50
Summary of the method: as §1

KRAS G13D = KRAS G13D (Homo sapiens, UniProt P01116+P62937, G13D); experiment: as above; format: biochemical; conditions: KRAS G13D; read-out: KRAS G13D FRET data IC50
Summary of the method: (§2)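 TR-FRET: nucleotide-loaded K-Ras mutant or WT with Cyclophilin A and BRAF RBD, compound 10-point 3-fold from 30 μM final, 3 h at 25° C, then anti-His Eu (10 nM) and anti-GST APC (50 nM) for 1.5 h. Decreased FRET ratio versus DMSO gives IC50.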

KRAS G12S = KRAS G12S (Homo sapiens, UniProt P01116+P62937, G12S); experiment: as above; format: biochemical; conditions: read-out: KRAS G12S FRET data, IC50
Summary of the method: as §2

KRAS G13C = KRAS G13C (Homo sapiens, UniProt P01116+P62937, G13C); experiment: as above; format: biochemical
Summary of the method: as §2

KRAS G12V = KRAS G12V (Homo sapiens, UniProt P01116+P62937, G12V); experiment: as above; format: biochemical; conditions: KRAS G12V; read-out: KRAS G12V FRET data IC50
Summary of the method: as §2

NRAS G12C = NRAS G12C (Homo sapiens, UniProt P01111+P62937, G12C); experiment: as above; format: biochemical; conditions: NRAS G12C; read-out: NRAS G12C FRET data IC50
KRAS G12D = KRAS G12D (Homo sapiens, UniProt P01116+P62937, G12D); experiment: as above; format: biochemical; conditions: read-out: KRAS G12D FRET data, IC50
Summary of the method: as §2

KRAS G12C = KRAS G12C (Homo sapiens, UniProt P01116+P62937, G12C); experiment: as above; format: biochemical
Summary of the method: as §2

KRAS WT = KRAS WT (Homo sapiens, UniProt P01116+P62937); experiment: as above; format: biochemical; conditions: KRAS WT; read-out: KRAS WT FRET data IC50
Summary of the method: as §2

NCI-H358 (K-Ras G12C) = experiment: CellTiter-Glo cell viability assay, 5-day treatment; format: cell-based; conditions: Homo sapiens, NCI-H358, H358, K-Ras G12C; read-out: Additional H358 Cell Viability assay data (K-Ras G12C, IC50)
Summary of the method: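 Five-day compound treatment of plated cells; luminescent read after ~30 min at RT. Percent-of-DMSO data fit to a four-parameter logistic model.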

[1] = KRAS G13C, read-out: KRAS G13C FRET data IC50
[2] = KRAS G12C, read-out: KRAS G12C FRET data IC50
[3] = read-out: KRAS G13C FRET data, IC50
[4] = read-out: KRAS G12C FRET data, IC50

KRAS G12S, sequence (P01116 1-169 isoform P01116-2 G12S limits assumed): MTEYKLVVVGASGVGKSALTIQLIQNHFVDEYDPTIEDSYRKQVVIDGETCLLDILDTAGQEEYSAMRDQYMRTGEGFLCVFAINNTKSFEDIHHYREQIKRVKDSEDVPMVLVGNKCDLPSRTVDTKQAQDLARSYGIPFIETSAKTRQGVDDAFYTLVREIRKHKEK
KRAS G12S, sequence (P62937 whole entry): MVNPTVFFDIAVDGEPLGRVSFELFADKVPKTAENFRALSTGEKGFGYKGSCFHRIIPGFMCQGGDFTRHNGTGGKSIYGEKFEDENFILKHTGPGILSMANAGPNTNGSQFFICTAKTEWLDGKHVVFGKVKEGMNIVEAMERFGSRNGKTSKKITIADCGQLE
NRAS WT, sequence (P01111 whole entry): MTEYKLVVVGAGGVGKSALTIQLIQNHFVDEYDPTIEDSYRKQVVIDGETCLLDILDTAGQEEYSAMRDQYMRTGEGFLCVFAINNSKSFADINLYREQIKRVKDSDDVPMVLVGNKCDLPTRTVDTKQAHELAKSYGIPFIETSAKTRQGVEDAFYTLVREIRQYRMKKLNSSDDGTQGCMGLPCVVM
NRAS WT, sequence (P62937 whole entry): as the sequence (P62937 whole entry) above
KRAS WT, sequence (P01116 1-169 isoform P01116-2 limits assumed): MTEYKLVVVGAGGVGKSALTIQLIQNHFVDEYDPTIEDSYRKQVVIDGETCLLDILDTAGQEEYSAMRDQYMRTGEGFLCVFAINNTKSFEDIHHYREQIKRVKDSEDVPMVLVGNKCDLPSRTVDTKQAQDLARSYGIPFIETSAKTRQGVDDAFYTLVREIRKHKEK
KRAS WT, sequence (P62937 whole entry): as the sequence (P62937 whole entry) above
KRAS G12V, sequence (P01116 1-169 isoform P01116-2 G12V limits assumed): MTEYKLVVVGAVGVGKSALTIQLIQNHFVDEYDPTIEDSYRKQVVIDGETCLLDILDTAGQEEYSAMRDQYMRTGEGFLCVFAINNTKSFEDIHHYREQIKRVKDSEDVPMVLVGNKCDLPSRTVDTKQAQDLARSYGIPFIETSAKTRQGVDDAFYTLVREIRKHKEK
KRAS G12V, sequence (P62937 whole entry): as the sequence (P62937 whole entry) above
NRAS G12C, sequence (P01111 whole entry G12C): as the sequence (P01111 whole entry) above, with G12C counted along it
NRAS G12C, sequence (P62937 whole entry): as the sequence (P62937 whole entry) above
KRAS G13D, sequence (P01116 1-169 isoform P01116-2 G13D limits assumed): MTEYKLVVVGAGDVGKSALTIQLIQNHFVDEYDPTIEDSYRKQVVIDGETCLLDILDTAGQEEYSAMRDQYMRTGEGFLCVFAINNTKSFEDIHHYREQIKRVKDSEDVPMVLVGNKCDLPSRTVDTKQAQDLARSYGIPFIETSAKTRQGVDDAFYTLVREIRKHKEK
KRAS G13D, sequence (P62937 whole entry): as the sequence (P62937 whole entry) above
KRAS G12C, sequence (P01116 1-169 isoform P01116-2 G12C): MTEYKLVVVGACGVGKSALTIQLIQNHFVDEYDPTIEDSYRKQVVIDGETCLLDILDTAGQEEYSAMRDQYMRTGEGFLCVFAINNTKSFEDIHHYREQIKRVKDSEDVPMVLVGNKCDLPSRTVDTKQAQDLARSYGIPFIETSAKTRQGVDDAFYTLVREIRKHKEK
KRAS G12C, sequence (P62937 whole entry): as the sequence (P62937 whole entry) above
KRAS G13C, sequence (P01116 1-169 isoform P01116-2 G13C): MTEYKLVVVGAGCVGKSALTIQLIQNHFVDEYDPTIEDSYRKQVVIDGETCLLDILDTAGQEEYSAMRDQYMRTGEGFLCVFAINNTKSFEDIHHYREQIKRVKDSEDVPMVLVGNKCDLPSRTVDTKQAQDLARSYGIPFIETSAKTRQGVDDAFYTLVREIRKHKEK
KRAS G13C, sequence (P62937 whole entry): as the sequence (P62937 whole entry) above
NRAS Q61R, sequence (P01111 whole entry Q61R): as the sequence (P01111 whole entry) above, with Q61R counted along it
NRAS Q61R, sequence (P62937 whole entry): as the sequence (P62937 whole entry) above
NRAS Q61K, sequence (P01111 whole entry Q61K): as the sequence (P01111 whole entry) above, with Q61K counted along it
NRAS Q61K, sequence (P62937 whole entry): as the sequence (P62937 whole entry) above
KRAS Q61H, sequence (P01116 1-169 isoform P01116-2 Q61H limits assumed): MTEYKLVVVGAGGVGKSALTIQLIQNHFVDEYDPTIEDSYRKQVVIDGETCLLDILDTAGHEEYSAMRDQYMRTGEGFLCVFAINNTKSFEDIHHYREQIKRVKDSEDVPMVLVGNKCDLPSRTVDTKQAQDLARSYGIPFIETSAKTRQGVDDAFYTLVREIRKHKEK
KRAS Q61H, sequence (P62937 whole entry): as the sequence (P62937 whole entry) above
KRAS G12D, sequence (P01116 1-169 isoform P01116-2 G12D limits assumed): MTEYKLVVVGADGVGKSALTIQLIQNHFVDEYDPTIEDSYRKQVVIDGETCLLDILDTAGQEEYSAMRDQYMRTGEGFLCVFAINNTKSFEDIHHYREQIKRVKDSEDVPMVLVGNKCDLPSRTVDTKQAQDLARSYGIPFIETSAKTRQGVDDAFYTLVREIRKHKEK
KRAS G12D, sequence (P62937 whole entry): as the sequence (P62937 whole entry) above

Row | Compound | IC50 (NRAS Q61R) | IC50 (KRAS Q61H) | IC50 (NRAS WT) | IC50 (NRAS Q61K) | IC50 (KRAS G13D) | IC50 (KRAS G12S) | IC50 (KRAS G13C; [1]) | IC50 (KRAS G12V) | IC50 (NRAS G12C) | IC50 (KRAS G12D) | IC50 (KRAS G12C; [2]) | IC50 (KRAS WT) | IC50 (NCI-H358 (K-Ras G12C)) | IC50 (KRAS G13C; [3]) | IC50 (KRAS G12C; [4])
1 | CCn1c(-c2cccnc2[C@H](C)OC)c2c3cc(ccc31)-c1cc(O)cc(c1)C[C@H](NC(=O)[C@H](C(C)C)N(C)C(=O)[C@H]1[C@@H]3CNC[C@@H]31)C(=O)N1CCC[C@H](N1)C(=O)OCC(C)(C)C2 [Example A163] | 1000 to 10000 nM | 100 to 1000 nM | 100 to 1000 nM | 1000 to 10000 nM | – | – | – | – | – | – | – | – | – | – | –
2 | C=CS(=O)(=O)N1CC[C@H](C(=O)N(C)[C@H](C(=O)N[C@H]2Cc3cccc(c3)-c3ccc4c(c3)c(c(-c3cncnc3)n4CC)CC(C)(C)COC(=O)[C@@H]3CCCN(N3)C2=O)C(C)C)C1 [Example A171] | > 10000 nM | > 10000 nM | – | > 10000 nM | > 10000 nM | > 10000 nM | 1000 to 10000 nM | > 10000 nM | 1000 to 10000 nM | > 10000 nM | 1000 to 10000 nM | > 10000 nM | 100 to 1000 nM | – | –
3 | CCn1c(-c2cccnc2[C@H](C)OC)c2c3cc(ccc31)-c1cc(O)cc(c1)C[C@H](NC(=O)C(C)Cc1ccncc1)C(=O)N1CCC[C@H](N1)C(=O)OCC(C)(C)C2 (stereo partly drawn) [Example A179] | 1000 to 10000 nM | 100 to 1000 nM | 100 to 1000 nM | 1000 to 10000 nM | – | – | – | – | – | – | – | – | – | – | –

The next lines start with the values.

Row | IC50 (NRAS Q61R) | IC50 (KRAS Q61H) | IC50 (NRAS WT) | IC50 (NRAS Q61K) | IC50 (KRAS G13D) | IC50 (KRAS G12S) | IC50 (KRAS G13C; [1]) | IC50 (KRAS G12V) | IC50 (NRAS G12C) | IC50 (KRAS G12D) | IC50 (KRAS G12C; [2]) | IC50 (KRAS WT) | IC50 (NCI-H358 (K-Ras G12C)) | IC50 (KRAS G13C; [3]) | IC50 (KRAS G12C; [4]) | Compound
4 | 1000 to 10000 nM | 100 to 1000 nM | 1000 to 10000 nM | 1000 to 10000 nM | – | – | – | – | – | – | – | – | – | – | – | CCn1c(-c2cccnc2[C@H](C)OC)c2c3cc(ccc31)-c1cc(O)cc(c1)C[C@H](NC(=O)C13CCCC1C3(F)F)C(=O)N1CCC[C@H](N1)C(=O)OCC(C)(C)C2 (stereo partly drawn) [Example A180]
5 | 1000 to 10000 nM | 100 to 1000 nM | 100 to 1000 nM | 1000 to 10000 nM | 1000 to 10000 nM and > 10000 nM | 1000 to 10000 nM and > 10000 nM | – | 1000 to 10000 nM | 1000 to 10000 nM | 1000 to 10000 nM and > 10000 nM | – | 1000 to 10000 nM | – | 100 to 1000 nM and 1000 to 10000 nM | 100 to 1000 nM and 1000 to 10000 nM | CCn1c(-c2cccnc2[C@H](C)OC)c2c3cc(ccc31)-c1cc(O)cc(c1)C[C@H](NC(=O)C1[C@H]3COC[C@@H]13)C(=O)N1CCC[C@H](N1)C(=O)OCC(C)(C)C2 (stereo partly drawn) [Example A253]
6 | 100 to 1000 nM | 10 to 100 nM | 10 to 100 nM | 100 to 1000 nM | 10 to 100 nM | 100 to 1000 nM | – | 100 to 1000 nM | 10 to 100 nM | 100 to 1000 nM | – | 10 to 100 nM | – | 10 to 100 nM | 10 to 100 nM | CCn1c(-c2cccnc2[C@H](C)OC)c2c3cc(ccc31)-c1cc(O)cc(c1)C[C@H](NC(=O)[C@H](C1CCCC1)N(C)C(=O)N1CCS(=O)(=NC)CC1)C(=O)N1CCC[C@H](N1)C(=O)OCC(C)(C)C2 [Example A426]
7 | 10 to 100 nM | 10 to 100 nM | – | 10 to 100 nM | 100 to 1000 nM | 100 to 1000 nM | 100 to 1000 nM | 100 to 1000 nM | < 10 nM | 100 to 1000 nM | 10 to 100 nM | 100 to 1000 nM | 100 to 1000 nM | – | – | C=CC(=O)N1CC2(CCN2C(=O)N(C)[C@H](C(=O)N[C@H]2Cc3nc(n(C)n3)-c3ccc4c(c3)c(c(-c3cccnc3[C@H](C)OC)n4CC)CC(C)(C)COC(=O)C3CCCN(N3)C2=O)C(C)C)C1 (stereo partly drawn) [Example A612]
